test system: HBV rcDNA in HepDE19 cells; experiment: HepDE19 assay with bDNA quantitation of HBV rcDNA; assay type: cell-based, hepatitis B virus (HBV); details: Hepatitis B virus, HepDE19, 168 h, inhibition of rcDNA formation in HepDE19 cells (HepG2 derived), Tet-free medium, 7 day incubation, Quantigene 2.0 bDNA readout, top concentration 25 μM; read-out: DE-19bDNA EC50
Method in brief: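 Cytotoxicity run on replicate plates (5,000 cells/well, 4 days, ATP luminescence, CC50), while antiviral plates (50,000 cells/well) received compound for 7 days after tetracycline withdrawal to induce HBV replication. Top dose 25 μM, 8 points, 0.5% DMSO; rcDNA by branched-DNA assay, % inhibition fitted (4-parameter) for EC50 and EC90.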

First: CCN(C(=O)Nc1ccc(F)c(Cl)c1)C1COCc2[nH]c(=O)c3cc(C#N)ccc3c21 (centres unmarked) [Compound 90, 3-(3-Chloro-4-fluorophenyl)-1-(8-cyano-6-oxo-1,4,5,6-tetrahydro-2H-pyrano[3,4-c]isoquinolin-1-yl)-1-ethylurea]
Second: CN(C(=O)Nc1ccc(F)c(Cl)c1)[C@@H]1COCc2[nH]c(=O)c3cc(F)ccc3c21 (single isomer, unassigned) [Compound 41]
The EC50 of the first is 36-fold higher: 0.36 µM for the first, 0.01 µM for the second. The second is the more potent here.

Compared with `Cc1cc(NC(=O)N(C)C2COCc3[nH]c(=O)c4cc(Cl)ccc4c32)ccc1F` (centres unmarked) [Compound 58, 1-(8-Chloro-6-oxo-1,4,5,6-tetrahydro-2H-pyrano[3,4-c]isoquinolin-1-yl)-3-(4-fluoro-3-methylphenyl)-1-methylurea], `CN(C(=O)Nc1ccc(F)c(Cl)c1)[C@@H]1COCc2[nH]c(=O)c3cc(F)c(F)cc3c21` (single isomer, unassigned) [Compound 72] is 4-fold lower in EC50: 0.04 µM for the first, 0.01 µM for the second.

Going from `O=C(Nc1ccc(F)c(Cl)c1)N(CCCO)C1CCCc2[nH]c(=O)c3cc(F)ccc3c21` (centres unmarked) [Compound 11, 3-(3-Chloro-4-fluorophenyl)-1-(8-fluoro-6-oxo-1,2,3,4,5,6-hexahydrophenanthridin-1-yl)-1-(3-hydroxypropyl)urea] to `O=C(Nc1ccc(F)c(Cl)c1)N(CCCO)C1CCCCc2[nH]c(=O)c3ccccc3c21` (centres unmarked) [Compound 22, 3-(3-Chloro-4-fluorophenyl)-1-(3-hydroxypropyl)-1-(5-oxo-6,7,8,9,10,11-hexahydro-5H-cyclohepta[c]isoquinolin-11-yl)urea], the EC50 rises from 0.06 µM to 0.6 µM (10-fold).

Going from `CN(C(=O)N1Cc2ccc(Br)cc2C1)[C@@H]1COCc2[nH]c(=O)c3cc(F)c(F)cc3c21` [Compound 220, (S)-5-Bromo-N-(8,9-difluoro-6-oxo-1,4,5,6-tetrahydro-2H-pyrano[3,4-c]isoquinolin-1-yl)-N-methylisoindoline-2-carboxamide] to `CN(C(=O)N1Cc2ccc(Cl)cc2C1)[C@@H]1COCc2[nH]c(=O)c3cc(F)c(F)cc3c21` [Compound 219, (S)-5-Chloro-N-(8,9-difluoro-6-oxo-1,4,5,6-tetrahydro-2H-pyrano[3,4-c]isoquinolin-1-yl)-N-methylisoindoline-2-carboxamide], the EC50 falls from 13 µM to 5.9 µM (2.2-fold).

Compared with `CN(C(=O)Nc1ccc(F)c(Cl)c1)[C@@H]1COCc2c1c1cc(F)c(F)cc1c(=O)n2CCN` [Compound 257, (S)-1-(5-(2-Aminoethyl)-8,9-difluoro-6-oxo-1,4,5,6-tetrahydro-2H-pyrano[3,4-c]isoquinolin-1-yl)-3-(3-chloro-4-fluorophenyl)-1-methylurea], `CN(C(=O)Nc1ccc(F)c(Cl)c1)[C@@H]1COCc2nc(OCCN)c3cc(F)c(F)cc3c21` [Compound 258, (S)-1-(6-(2-Aminoethoxy)-8,9-difluoro-1,4-dihydro-2H-pyrano[3,4-c]isoquinolin-1-yl)-3-(3-chloro-4-fluorophenyl)-1-methylurea] is 48-fold lower in EC50: 3.1 µM for the first, 0.065 µM for the second. The second is the more potent here.

Compared with `CN(C(=O)Nc1ccc(F)c(Cl)c1)C1COC(=O)c2[nH]c(=O)c3cc(F)c(F)cc3c21` (racemic) [Compound 152, 3-(3-Chloro-4-Fluorophenyl)-1-(8,9-difluoro-4,6-dioxo-1,4,5,6-tetrahydro-2H-pyrano[3,4-c]isoquinolin-1-yl)-1-methylurea], `CN(C(=O)Nc1ccc(F)c(Cl)c1)[C@@H]1COCc2nc(OCCO)c3cc(F)c(F)cc3c21` [Compound 255, (S)-3-(3-Chloro-4-fluorophenyl)-1-(8,9-difluoro-6-(2-hydroxyethoxy)-1,4-dihydro-2H-pyrano[3,4-c]isoquinolin-1-yl)-1-methylurea] is 2.5-fold higher in EC50: 0.02 µM for the first, 0.049 µM for the second.

First: CN(C(=O)Nc1ccc(F)c(Cl)c1)C1CCCCc2[nH]c(=O)c3ccccc3c21 (centres unmarked) [Compound 21, 3-(3-Chloro-4-fluorophenyl)-1-methyl-1-(5-oxo-6,7,8,9,10,11-hexahydro-5H-cyclohepta[c]isoquinolin-11-yl)urea]
Second: CN(C(=O)Nc1ccc(F)c(C#N)c1)C1CS(=O)(=O)Cc2[nH]c(=O)c3cc(F)c(F)cc3c21 (single isomer, unassigned) [Compound 205, 3-(3-Cyano-4-fluorophenyl)-1-(8,9-difluoro-3,3-dioxido-6-oxo-1,4,5,6-tetrahydro-2H-thiopyrano[3,4-c]isoquinolin-1-yl)-1-methylurea]
The EC50 of the first is 48-fold lower: 0.15 µM for the first, 7.2 µM for the second. The first is the more potent here.

`CN(C(=O)Nc1ccc(F)c(Cl)c1)C1COCc2nc(NCCN)c3cc(F)c(F)cc3c21` (centres unmarked) [Compound 240] showed an EC50 of 0.59 µM.

same assay, conditions: Hepatitis B virus, HepDE19, 168 h, read-out: DE-19bDNA EC50 (uM), inhibition of rcDNA formation in HepDE19 cells (HepG2 derived), Tet-free medium, 7 day incubation, Quantigene 2.0 bDNA readout, top concentration 25 μM

With `CN(C(=O)N1Cc2ccc(C(F)(F)F)cc2C1)[C@@H]1COCc2[nH]c(=O)c3cc(F)c(F)cc3c21` [Compound 230, (S)—N-(8,9-Difluoro-6-oxo-1,4,5,6-tetrahydro-2H-pyrano[3,4-c]isoquinolin-1-yl)-N-methyl-5-(trifluoromethyl)isoindoline-2-carboxamide] the EC50 was 24 µM.

same assay, conditions: inhibition of rcDNA formation in HepDE19 cells (HepG2 derived), Tet-free medium, 7 day incubation, Quantigene 2.0 bDNA readout, top concentration 25 μM; read-out: DE-19bDNA EC50

Going from `CC(C)CN(C(=O)Nc1cc(F)c(F)c(F)c1)C1COCc2[nH]c(=O)c3cc(F)ccc3c21` (single isomer, unassigned) [Compound 113, 1-(8-Fluoro-6-oxo-2,4,5,6-tetrahydro-1H-pyrano[3,4-c]isoquinolin-1-yl)-1-isobutyl-3-(3,4,5-trifluorophenyl)urea] to `CC(C)CN(C(=O)Nc1ccc(F)c(F)c1)C1COCc2[nH]c(=O)c3cc(F)ccc3c21` (single isomer, unassigned) [Compound 100, 3-(3,4-Difluorophenyl)-1-(8-fluoro-6-oxo-2,4,5,6-tetrahydro-1H-pyrano[3,4-c]isoquinolin-1-yl)-1-isobutylurea], the EC50 rises from 0.02 µM to 0.43 µM (22-fold). The first is the more potent here.

Compared with `O=C(Nc1ccc(F)c(Cl)c1)N(CCCO)C1COCc2[nH]c(=O)c3cc(F)ccc3c21` (single isomer, unassigned) [Compound 109, 3-(3-Chloro-4-fluorophenyl)-1-(8-fluoro-6-oxo-1,4,5,6-tetrahydro-2H-pyrano[3,4-c]isoquinolin-1-yl)-1-(3-hydroxypropyl)urea], `CN(C(=O)Nc1ccc(F)c(Cl)c1)C1CSCc2[nH]c(=O)c3cc(F)ccc3c21` (single isomer, unassigned) [Compound 183, 3-(3-Chloro-4-fluorophenyl)-1-(8-fluoro-6-oxo-1,4,5,6-tetrahydro-2H-thiopyrano[3,4-c]isoquinolin-1-yl)-1-methylurea] is 1.8-fold higher in EC50: 0.62 µM for the first, 1.1 µM for the second.

First: CNc1nc2c(c3cc(F)c(F)cc13)C(N(C)C(=O)Nc1ccc(F)c(Cl)c1)COC2 (single isomer, unassigned) [Compound 241, 3-(3-Chloro-4-fluorophenyl)-1-(8,9-difluoro-6-(methylamino)-1,4-dihydro-2H-pyrano[3,4-c]isoquinolin-1-yl)-1-methylurea]
Second: CN(C(=O)Nc1ccc(F)c(Cl)c1)C1CCCc2[nH]c(=O)c3cc(F)c(F)cc3c21 (centres unmarked) [Compound 39, 3-(3-Chloro-4-fluorophenyl)-1-(8,9-difluoro-6-oxo-1,2,3,4,5,6-hexahydrophenanthridin-1-yl)-1-methylurea]
The EC50 of the first is 240-fold higher: 2.38 µM for the first, 0.01 µM for the second.

Going from `CC(=O)N1Cc2[nH]c(=O)c3cc(F)ccc3c2C(N(C)C(=O)Nc2ccc(F)c(Cl)c2)C1` (single isomer, unassigned) [Compound 158, 1-(3-Acetyl-8-fluoro-6-oxo-1,2,3,4,5,6-hexahydrobenzo[c][1,7]naphthyridin-1-yl)-3-(3-chloro-4-fluorophenyl)-1-methylurea] to `CN(C(=O)Nc1ccc(F)c(Cl)c1)C1CS(=O)(=O)Cc2[nH]c(=O)c3cc(F)ccc3c21` (single isomer, unassigned) [Compound 198, 3-(3-Chloro-4-fluorophenyl)-1-(8-fluoro-3,3-dioxido-6-oxo-1,4,5,6-tetrahydro-2H-thiopyrano[3,4-c]isoquinolin-1-yl)-1-methylurea], the EC50 rises from 2.3 µM to 3.7 µM (1.6-fold). The first is the more potent here.

Going from `CN(C(=O)Nc1ccc(F)c(C#N)c1)C1CN(CCO)Cc2[nH]c(=O)c3cc(F)ccc3c21` (single isomer, unassigned) [Compound 171, 3-(3-Cyano-4-fluorophenyl)-1-(8-fluoro-3-(2-hydroxyethyl)-6-oxo-1,2,3,4,5,6-hexahydrobenzo[c][1,7]naphthyridin-1-yl)-1-methylurea] to `CN(C(=O)Nc1ccc(F)c(C#N)c1)C1CNCc2[nH]c(=O)c3cc(F)c(F)cc3c21` (single isomer, unassigned) [Compound 176, 3-(3-Cyano-4-fluorophenyl)-1-(8,9-difluoro-6-oxo-1,2,3,4,5,6-hexahydrobenzo[c][1,7]naphthyridin-1-yl)-1-methylurea], the EC50 falls from 23 µM to 0.05 µM (460-fold). The second is the more potent here.

First: CN(C(=O)Nc1ccc(F)c(Cl)c1)C1C[S+]([O-])Cc2[nH]c(=O)c3cc(F)c(F)cc3c21 (single isomer, unassigned) [Compound 207, 3-(3-Chloro-4-fluorophenyl)-1-(8,9-difluoro-3-oxido-6-oxo-1,4,5,6-tetrahydro-2H-thiopyrano[3,4-c]isoquinolin-1-yl)-1-methylurea]
Second: CC(C)CN(C(=O)Nc1ccc(F)c(C#N)c1)C1COCc2[nH]c(=O)c3cc(F)c(F)cc3c21 (single isomer, unassigned) [Compound 121, 3-(3-Cyano-4-fluorophenyl)-1-(8,9-difluoro-6-oxo-1,4,5,6-tetrahydro-2H-pyrano[3,4-c]isoquinolin-1-yl)-1-isobutylurea]
The EC50 of the first is 130-fold higher: 1.3 µM for the first, 0.01 µM for the second. The second is the more potent here.

`CC(C)CN(C(=O)Nc1cc(F)c(F)c(F)c1)C1COCc2[nH]c(=O)c3cc(F)ccc3c21` (single isomer, unassigned) [Compound 114, 1-(8-Fluoro-6-oxo-2,4,5,6-tetrahydro-1H-pyrano[3,4-c]isoquinolin-1-yl)-1-isobutyl-3-(3,4,5-trifluorophenyl)urea] was tested, and the EC50 was 0.41 µM.

Source: patent US20230108906A1, “SUBSTITUTED BICYCLIC AND TRICYCLIC UREAS AND AMIDES, ANALOGUES THEREOF, AND METHODS USING SAME” (Arbutus Biopharma Corporation, priority 2019, published 2023)
